Source: patent US20120040996A1, “3-BENZOFURANYL-INDOL-2-ONE DERIVATIVES SUBSTITUTED AT THE 3 POSITION, PREPARATION THEREOF, AND THERAPEUTIC USE THEREOF” (SANOFI, priority 2009, published 2012)

Target: T1, ghrelin receptor (Rattus norvegicus, UniProt O08725)
T1 construct: Strips of approximately 1 cm (5 mm wide) of gastric fundus were cut out along the longitudinal axis; from tissue; host or cells: rat gastric fundus strips
Assay: Ghrelin concentration-response on electrically stimulated isolated rat gastric fundus strips (headed "In Vivo Test")
Conditions: electric-field stimulation, ghrelin 0.1 nM-1 μM, antagonist contact time 30 minutes, read-out: IC50, antagonist activity towards the ghrelin receptor
Experimental: Male Crl CD BR rats (Charles River, Italy) weighing 150-175 g were housed in a chamber at regulated temperature (22±1° C.) and humidity (55±10%) and with a 12-hour lightness-darkness cycle, for at least 7 days before their use. Feed and water were available ad libitum. The feed was removed 18 hours before sacrificing the animals. The rats were sacrificed by cervical dislocation, and the stomach was removed surgically, opened along the shorter curvature and placed in a Krebs solution (of composition (mM): 118.4 NaCl; 4.7 KCl; 2.5 CaCl2; 3.7 NaH2PO4; 1.2 MgSO4; 25 NaHCO3; 5.6 glucose). The animals were cared for and sacrificed according to the Sanofi-Aventis international code of ethics and the international principles governing the care and treatment of laboratory animals (EEC Directive 86/609, DJL358, 1, 12 Dec. 1987). […] The contractions were recorded by computer with a data recording and analysis system (Power Lab, Chart 5) connected to isotonic transducers (Ugo Basile, Varese, Italy) via preamplifiers (Octal Bridge Amp). […] The pKb values for the antagonists were calculated according to the Cheng-Prusoff equation (Kenakin et al., Competitive Antagonism, Pharmacologic Analysis of Drug-Receptor Interaction, 3rd edition, 331-373, Philadelphia, New York; Raven: Lippincott, 1997).

T1 sequence (O08725 whole entry): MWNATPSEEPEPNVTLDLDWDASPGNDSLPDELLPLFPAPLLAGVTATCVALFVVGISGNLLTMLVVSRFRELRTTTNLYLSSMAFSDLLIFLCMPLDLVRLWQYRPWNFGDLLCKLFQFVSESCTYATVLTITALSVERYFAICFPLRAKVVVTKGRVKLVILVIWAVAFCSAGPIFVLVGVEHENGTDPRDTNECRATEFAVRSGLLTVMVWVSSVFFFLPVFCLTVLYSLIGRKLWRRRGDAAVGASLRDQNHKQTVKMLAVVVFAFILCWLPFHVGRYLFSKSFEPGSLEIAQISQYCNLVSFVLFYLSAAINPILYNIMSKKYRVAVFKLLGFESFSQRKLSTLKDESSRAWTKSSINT

Work on CCN1CCN(CC(=O)NC2(c3ccc4occc4c3)C(=O)Nc3cc(Cl)cc(Cl)c32)CC1 (single isomer, unassigned; (+)) [Example 1, (+)-N-[4,6-Dichloro-3-(benzofuran-5-yl)-2-oxo-2,3-dihydro-1H-indol-3-yl]-2-(4-ethylpiperazin-1-yl)acetamide] yielded an IC50 of 22 nM.
